Patent US20210045385A1, “PYRIDAZINONE-SUBSTITUTED KETOXIMES AS HERBICIDES” (FMC Corporation, priority 2018, published 2021)

Legend:
Type in all cases: in vivo
[1] = test system: Italian ryegrass (Lolium mutiflorum); assay: Test C preemergence, visual plant response rating
Outline: (§1)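 Seeds sown in a loam–sand blend got a directed preemergence soil spray; postemergence plants (2–10 cm, one- to two-leaf stage) were sprayed with compound in a non-phytotoxic solvent plus surfactant. Injury was scored visually against untreated controls after about 10 d in a greenhouse on a 0–100 scale (100 = complete control).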

[2] = test system: barnyardgrass (Echinochloa crus-galli); assay: Test C preemergence, visual plant response rating
Outline: as §1

[3] = test system: foxtail, giant (giant foxtail, Setaria faberi); assay: Test C preemergence, visual plant response rating
Outline: as §1

kochia (Bassia scoparia) [4] = assay: Test C preemergence, visual plant response rating
Outline: as §1

[5] = test system: pigweed (Amaranthus retroflexus); assay: Test C preemergence, visual plant response rating
Outline: as §1

[6] = test system: ragweed (common ragweed, Ambrosia artemisiifolia); assay: Test C preemergence, visual plant response rating
Outline: as §1

[7] = test system: Italian ryegrass (Lolium mutiflorum); assay: Test C postemergence, visual plant response rating
Outline: as §1

[8] = test system: barnyardgrass (Echinochloa crus-galli); assay: Test C postemergence, visual plant response rating
Outline: as §1

[9] = test system: blackgrass (Alopecurus myosuroides); assay: Test C postemergence, visual plant response rating
Outline: as §1

corn (Zea mays) = assay: Test C postemergence, visual plant response rating
Outline: as §1

[10] = test system: foxtail, giant (giant foxtail, Setaria faberi); assay: Test C postemergence, visual plant response rating
Outline: as §1

[11] = test system: galium (catchweed bedstraw, Galium aparine); assay: Test C postemergence, visual plant response rating
Outline: as §1

kochia (Bassia scoparia) [12] = assay: Test C postemergence, visual plant response rating
Outline: as §1

[13] = test system: pigweed (Amaranthus retroflexus); assay: Test C postemergence, visual plant response rating
Outline: as §1

[14] = test system: ragweed (common ragweed, Ambrosia artemisiifolia); assay: Test C postemergence, visual plant response rating
Outline: as §1

[15] = test system: wheat (Triticum aestivum); assay: Test C postemergence, visual plant response rating
Outline: as §1

[16] = test system: barnyardgrass (Echinochloa crus-galli); assay: Test D flooded paddy test, visual plant response rating; conditions: 250 g ai/ha, scale 0 to 100 (0 no effect, 100 complete control), 13 to 15 d
Outline: (§2)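 Greenhouse paddy assay scored on a 0–100 visual scale after 13 to 15 d, where 100 means complete control and a dash marks no result; dosing was into 3 cm floodwater over 2-leaf plants.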

[17] = test system: duck salad (Heteranthera limosa); assay: as above; conditions: 250 g ai/ha, scale 0 to 100 (0 no effect, 100 complete control), 13 to 15 d
Outline: as §2

rice (Oryza sativa) = assay: as above; conditions: 250 g ai/ha, scale 0 to 100 (0 no effect, 100 complete control), 13 to 15 d
Outline: as §2

[18] = test system: sedge umbrella (small-flower umbrella sedge, Cyperus difformis); assay: as above; conditions: 250 g ai/ha, scale 0 to 100 (0 no effect, 100 complete control), 13 to 15 d
Outline: as §2

[19] = Test C, 31 g ai/ha, 0 is no effect, 100 is complete control
[20] = Test C, 125 g ai/ha, 0 is no effect, 100 is complete control
[21] = Test C, postemergence, 125 g ai/ha
[22] = Test C, postemergence, 31 g ai/ha

CO/N=C(/c1c(O)c(C)nn(C)c1=O)c1cc(SC)cc2ccccc12 [Compound 298]
30: Galium plant response rating (0 to 100 scale) [11, 21]
20: Blackgrass plant response rating (0 to 100 scale) [9, 21]
40: Pigweed plant response rating (0 to 100 scale) [13, 21]
10: Pigweed plant response rating (0 to 100 scale) [5, 20] | Kochia plant response rating (0 to 100 scale) (kochia (Bassia scoparia) [12]; [21]) | Ragweed plant response rating (0 to 100 scale) [14, 21]
0: Ryegrass, Italian plant response rating (0 to 100 scale) [1, 19] | Ryegrass, Italian plant response rating (0 to 100 scale) [1, 20] | Barnyardgrass plant response rating (0 to 100 scale) [2, 19] | Barnyardgrass plant response rating (0 to 100 scale) [2, 20] | Foxtail, Giant plant response rating (0 to 100 scale) [3, 19] | Foxtail, Giant plant response rating (0 to 100 scale) [3, 20] | Kochia plant response rating (0 to 100 scale) (kochia (Bassia scoparia) [4]; [19]) | Kochia plant response rating (0 to 100 scale) (kochia (Bassia scoparia) [4]; [20]) | Pigweed plant response rating (0 to 100 scale) [5, 19] | Ragweed plant response rating (0 to 100 scale) [6, 19] | Ragweed plant response rating (0 to 100 scale) [6, 20] | Ryegrass, Italian plant response rating (0 to 100 scale) ([7]; Postemergence, 31 g ai/ha) | Ryegrass, Italian plant response rating (0 to 100 scale) [7, 21] | Barnyardgrass plant response rating (0 to 100 scale) ([8]; Postemergence, 31 g ai/ha) | Barnyardgrass plant response rating (0 to 100 scale) [8, 21] | Blackgrass plant response rating (0 to 100 scale) ([9]; Postemergence, 31 g ai/ha) | Corn plant response rating (0 to 100 scale) (corn (Zea mays); Postemergence, 31 g ai/ha) | Corn plant response rating (0 to 100 scale) (corn (Zea mays); [21]) | Foxtail, Giant plant response rating (0 to 100 scale) ([10]; Postemergence, 31 g ai/ha) | Foxtail, Giant plant response rating (0 to 100 scale) [10, 21] | Galium plant response rating (0 to 100 scale) ([11]; Postemergence, 31 g ai/ha) | Kochia plant response rating (0 to 100 scale) (kochia (Bassia scoparia) [12]; Postemergence, 31 g ai/ha) | Pigweed plant response rating (0 to 100 scale) ([13]; Postemergence, 31 g ai/ha) | Ragweed plant response rating (0 to 100 scale) ([14]; Postemergence, 31 g ai/ha) | Wheat plant response rating (0 to 100 scale) ([15]; Postemergence, 31 g ai/ha) | Wheat plant response rating (0 to 100 scale) [15, 21] | Plant response rating, Barnyardgrass (Flood) [16] | Plant response rating, Ducksalad (Flood) [17] | Plant response rating, Rice (Flood) (rice (Oryza sativa)) | Plant response rating, Sedge, Umbrella (Flood) [18]

CON=C(c1cc(Cl)cc(Cl)c1Cl)c1c(O)c(C)nn(C)c1=O [Compound 214]
80: Foxtail, Giant plant response rating (0 to 100 scale) [3, 19] | Pigweed plant response rating (0 to 100 scale) [5, 19] | Ryegrass, Italian plant response rating (0 to 100 scale) ([7]; Postemergence, 31 g ai/ha) | Barnyardgrass plant response rating (0 to 100 scale) [8, 21] | Blackgrass plant response rating (0 to 100 scale) [9, 21] | Foxtail, Giant plant response rating (0 to 100 scale) ([10]; Postemergence, 31 g ai/ha) | Foxtail, Giant plant response rating (0 to 100 scale) [10, 21] | Kochia plant response rating (0 to 100 scale) (kochia (Bassia scoparia) [12]; [21]) | Pigweed plant response rating (0 to 100 scale) ([13]; Postemergence, 31 g ai/ha) | Ragweed plant response rating (0 to 100 scale) ([14]; Postemergence, 31 g ai/ha)
100: Ryegrass, Italian plant response rating (0 to 100 scale) [1, 20] | Foxtail, Giant plant response rating (0 to 100 scale) [3, 20] | Pigweed plant response rating (0 to 100 scale) [5, 20] | Ragweed plant response rating (0 to 100 scale) [6, 20] | Ryegrass, Italian plant response rating (0 to 100 scale) [7, 21]
20: Kochia plant response rating (0 to 100 scale) (kochia (Bassia scoparia) [4]; [19]) | Ragweed plant response rating (0 to 100 scale) [6, 19]
45: Plant response rating, Rice (Flood) (rice (Oryza sativa))
90: Ryegrass, Italian plant response rating (0 to 100 scale) [1, 19] | Barnyardgrass plant response rating (0 to 100 scale) [2, 20] | Galium plant response rating (0 to 100 scale) ([11]; Postemergence, 31 g ai/ha) | Galium plant response rating (0 to 100 scale) [11, 21] | Pigweed plant response rating (0 to 100 scale) [13, 21] | Ragweed plant response rating (0 to 100 scale) [14, 21]
40: Corn plant response rating (0 to 100 scale) (corn (Zea mays); [21]) | Wheat plant response rating (0 to 100 scale) ([15]; Postemergence, 31 g ai/ha)
70: Barnyardgrass plant response rating (0 to 100 scale) [2, 19] | Kochia plant response rating (0 to 100 scale) (kochia (Bassia scoparia) [4]; [20]) | Barnyardgrass plant response rating (0 to 100 scale) ([8]; Postemergence, 31 g ai/ha) | Kochia plant response rating (0 to 100 scale) (kochia (Bassia scoparia) [12]; Postemergence, 31 g ai/ha) | Wheat plant response rating (0 to 100 scale) [15, 21] | Plant response rating, Barnyardgrass (Flood) [16] | Plant response rating, Ducksalad (Flood) [17] | Plant response rating, Sedge, Umbrella (Flood) [18]
30: Blackgrass plant response rating (0 to 100 scale) ([9]; Postemergence, 31 g ai/ha) | Corn plant response rating (0 to 100 scale) (corn (Zea mays); Postemergence, 31 g ai/ha)

C#CCO/N=C(/c1cc(C)cc(Cl)c1)c1c(O)c(C)nn(C)c1=O [Compound 154]
80: Ragweed plant response rating (0 to 100 scale) ([6]; 125 g ai/ha) | Foxtail, Giant plant response rating (0 to 100 scale) [10, 22]
100: Ryegrass, Italian plant response rating (0 to 100 scale) ([1]; 125 g ai/ha) | Foxtail, Giant plant response rating (0 to 100 scale) ([3]; 125 g ai/ha) | Ryegrass, Italian plant response rating (0 to 100 scale) [7, 21] | Galium plant response rating (0 to 100 scale) [11, 21] | Pigweed plant response rating (0 to 100 scale) [13, 21]
70: Ryegrass, Italian plant response rating (0 to 100 scale) ([7]; Postemergence, 31 g ai/ha) | Kochia plant response rating (0 to 100 scale) (kochia (Bassia scoparia) [12]; [21]) | Ragweed plant response rating (0 to 100 scale) ([14]; Postemergence, 31 g ai/ha)
30: Pigweed plant response rating (0 to 100 scale) ([13]; Postemergence, 31 g ai/ha) | Wheat plant response rating (0 to 100 scale) ([15]; Postemergence, 31 g ai/ha)
90: Barnyardgrass plant response rating (0 to 100 scale) ([2]; 125 g ai/ha) | Kochia plant response rating (0 to 100 scale) (kochia (Bassia scoparia) [4]; 125 g ai/ha) | Pigweed plant response rating (0 to 100 scale) ([5]; 125 g ai/ha) | Barnyardgrass plant response rating (0 to 100 scale) [8, 21] | Blackgrass plant response rating (0 to 100 scale) [9, 21] | Foxtail, Giant plant response rating (0 to 100 scale) [10, 21] | Galium plant response rating (0 to 100 scale) [11, 22] | Ragweed plant response rating (0 to 100 scale) [14, 21] | Wheat plant response rating (0 to 100 scale) [15, 21]
0: Kochia plant response rating (0 to 100 scale) (kochia (Bassia scoparia) [4]; [19]) | Corn plant response rating (0 to 100 scale) (corn (Zea mays); [22]) | Plant response rating, Barnyardgrass (Flood) [16] | Plant response rating, Ducksalad (Flood) [17] | Plant response rating, Rice (Flood) (rice (Oryza sativa)) | Plant response rating, Sedge, Umbrella (Flood) [18]
60: Foxtail, Giant plant response rating (0 to 100 scale) [3, 19] | Kochia plant response rating (0 to 100 scale) (kochia (Bassia scoparia) [12]; [22])
40: Ryegrass, Italian plant response rating (0 to 100 scale) [1, 19] | Barnyardgrass plant response rating (0 to 100 scale) [2, 19] | Pigweed plant response rating (0 to 100 scale) [5, 19] | Ragweed plant response rating (0 to 100 scale) [6, 19] | Corn plant response rating (0 to 100 scale) (corn (Zea mays); [21])
50: Barnyardgrass plant response rating (0 to 100 scale) [8, 22] | Blackgrass plant response rating (0 to 100 scale) [9, 22]
